The conditions of data set [1]: water, 0.15 m kcl.
Description: (§1) Determination of pKa and log P was done by potentiometry and spectrophotometry. The potentiometric method includes the use of expert software to calculate pKa and log P from simple acid and base titrations of the analytes. The pKa was first determined by weighing approximately 2 mg of pure substance into an assay vial. […] The solution was then titrated with acid (0.5N HCl) or base (0.5N NaOH) to the final pH.
(§2) A minimum of three ratios of water/DMSO was titrated to obtain psKa (apparent pKa in the presence of cosolvent). The aqueous pKa was determined by extrapolation using the Yasuda-Shedlovsky technique.
Data set [2] can be described thus: Log D at pH 7.4 (octanol/water). The data set is classed as physicochemical.
Description: Log D is the log distribution coefficient at a particular pH (Equation 8). […] Log D=log10(Distribution Coefficient) Equation 8
as §1
The log P was determined by a titration in the presence of octanol (water saturated). The pKa in water and the apparent pKa in the presence of octanol (poKa) were compared and the log P determined. Ion-pairing (partitioning of a charged species into octanol, termed log P^+ or log P^−) were determined with an additional titration in the presence of another volume of octanol. Using experimentally determined pKa and log P, a drug lipophilicity profile (log D. vs. pH) was calculated. The log D7.4 was determined from this profile at pH 7.4.
Another data set can be described thus: physchem. The note with it: water, 0.15 m kcl.
Data set [3] is described as follows: Equilibrium/stability constants of zinc complexes. In kind it is physicochemical. The note with it: approximated.
Data set [4] can be described thus: Equilibrium/stability constants of magnesium complexes. The note with it: estimated from literature precedents of similar compounds. The data set is classed as physicochemical.

Description for physchem: as §1, §2

Take `N[C@@H](Cc1cc(I)c(Oc2ccc(O)c(I)c2)c(I)c1)C(=O)[O-].N[C@@H](Cc1cc(I)c(Oc2ccc(O)c(I)c2)c(I)c1)C(=O)[O-].[Zn+2]` [Bis(triiodothyroninato)zinc]: in data set [1], the “pKa (first listed)” value is recorded as 6.66 and the “pKa (second listed)” value is listed as 6.42. Also, the “Log D7.4” value in data set [2] was 3.43.

Broadly, the pKa is the negative logarithm of the acid dissociation constant. A high value points to a group that holds its proton tightly. Regarding `N[C@@H](Cc1cc(I)c(Oc2ccc(O)c(I)c2)c(I)c1)C(=O)O` [Triiodothyronine], the logD in data set [2] (Method Potentiometric, read-out: Log D7.4) stood at 2.8. Besides, the pKa in “physchem” (pKa (first listed)) turned out to be 8.41; in the data set “physchem” (pKa (second listed)) it was 8.07.

Take `N[C@@H](Cc1ccccc1)C(=O)O.[Zn]` [phenylalanine-zinc]: the “cumulative binding constant, β2” value in data set [3] worked out at 8.5.

Bis(acycloguanosinato)magnesium: the “log Keq (estimated)” value in data set [4] was 1.6.

The values above are taken from patent US20060141054A1, “Metal coordinated compositions” (priority 2004, published 2006).
